In ChEMBL document CHEMBL3832048, “DailyMed|setid=020d34eb-9560-4218-9d87-dfdeff705c3a | BICALUTAMIDE - bicalutamide tablet, film coated|Physicians Total Care, Inc”:

Experiments:
[1] = (§1) Pharmacokinetic parameters for Bicalutamide following single oral administration of Bicalutamide tablets to 30 healthy male subjects and 40 patients with prostrate cancer.; format: ADME, organism-based; set-up: route oral; conditions: human, in vivo, dosed compound id 25, dosed compound name BICALUTAMIDE, gender male, regimen Single dose, tissue Plasma
[2] = system: Homo sapiens; assay: as §1; format: ADME, organism-based; set-up: route oral; conditions: in vivo, po, dosed compound id 25, dosed compound name BICALUTAMIDE, gender male, regimen Single dose, tissue Plasma

## CC(O)(CS(=O)(=O)c1ccc(F)cc1)C(=O)Nc1ccc(C#N)c(C(F)(F)F)c1 (stereo not given) [BICALUTAMIDE]
[1]; po
  Cmax: 768 ng/mL
[1]; route oral
  CL/F: 5.33 mL/min
  Tmax: 31.3 h
  half-life: 139 h
[2]
  Css: 8939 ng/mL
